# Measurements taken from patent US20180327355A1, “ISOINDOLINE DERIVATIVES” (priority 2015, published 2018).
# Read-outs that look alike come from different tables or passages of the source.
# Tested on: HIV
# Test: MT4 assay (anti-HIV activity)
# Assay type: cell-based
# Experimental: Antiviral HIV activity and cytotoxicity values for compounds of the invention from Table 1 were measured in parallel in the HTLV-1 transformed cell line MT-4 based on the method previously described (Hazen et al., 2007, In vitro antiviral activity of the novel, tyrosyl-based human immunodeficiency virus (HIV) type 1 protease inhibitor brecanavir (GW640385) in combination with other antiretrovirals and against a panel of protease inhibitor-resistant HIV (Hazen et al., “In vitro antiviral activity of the novel, tyrosyl-based human immunodeficiency virus (HIV) type 1 protease inhibitor brecanavir (GW640385) in combination with other antiretrovirals and against a panel of protease inhibitor-resistant HIV”, Antimicrob. Agents Chemother. 2007, 51: 3147-3154; and Pauwels et al., “Sensitive and rapid assay on MT-4 cells for the detection of antiviral compounds against the AIDS virus”, J. of Virological Methods 1987, 16: 171-185).
# Luciferase activity was measured 96 hours later by adding a cell titer glo (Promega, Madison, Wis.). Percent inhibition of cell protection data was plotted relative to no compound control. Under the same condition, cytotoxicity of the compounds was determined using cell titer Glo™ (Promega, Madison, Wis). ICsos were determined from a 10 point dose response curve using 3-4-fold serial dilution for each compound, which spans a concentration range >1000 fold.
# These values are plotted against the molar compound concentrations using the standard four parameter logistic equation:
# y=((Vmax*x̂n)/(K̂n+x̂n))+Y2
# Y2=minimum y n=slope factor
# Vmax=maximum y x=compound concentration [M]
# [1] = MT4 assay, HTLV-1 transformed cell line MT-4, readout 96 hours, cell titer glo, read-out: IC50
Structure (SMILES),IC50 [1],IC50 (96 h)
"Cc1c(C#Cc2ccccc2)c([C@H](OC(C)(C)C)C(=O)O)c(C)c2c1CN(C(=O)c1cccc(F)c1)C2 [Example 1, (S)-2-(tert-butoxy)-2-(2-(3-fluorobenzoyl)-4,7-dimethyl-6-(phenylethynyl)isoindolin-5-yl)acetic acid]",1.03 µM,
"C#Cc1c(C)c2c(c(C)c1[C@H](OC(C)(C)C)C(=O)O)CN(C(=O)c1cccc(F)c1)C2 [Example 2, (S)-2-(tert-butoxy)-2-(6-ethynyl-2-(3-fluorobenzoyl)-4,7-dimethylisoindolin-5-yl)acetic acid]",3.68 µM,
"Cc1c2c(c(C)c([C@H](OC(C)(C)C)C(=O)O)c1Cc1ccccc1)CN(C(=O)c1cccc(F)c1)C2 [Example 3, (S)-2-(6-benzyl-2-(3-fluorobenzoyl)-4,7-dimethylisoindolin-5-yl)-2-(tert-butoxy)acetic acid]",0.651 µM,
"Cc1c2c(c(C)c([C@H](OC(C)(C)C)C(=O)O)c1CC(=O)N1CCCCC1)CN(C(=O)c1cccc(F)c1)C2 [Example 4, (S)-2-(tert-butoxy)-2-(2-(3-fluorobenzoyl)-4,7-dimethyl-6-(2-oxo-2-(piperidin-1-yl)ethyl)isoindolin-5-yl)acetic acid]",10.2 µM,
"Cc1c2c(c(C)c([C@H](OC(C)(C)C)C(=O)O)c1CC(=O)NC1CCCCC1)CN(C(=O)c1cccc(F)c1)C2 [Example 5, (S)-2-(tert-butoxy)-2-(6-(2-(cyclohexylamino)-2-oxoethyl)-2-(3-fluorobenzoyl)-4,7-dimethylisoindolin-5-yl)acetic acid]",50 µM,
"Cc1c2c(c(C)c([C@H](OC(C)(C)C)C(=O)O)c1CC(=O)Nc1ccccc1)CN(C(=O)c1cccc(F)c1)C2 [Example 6, (S)-2-(tert-butoxy)-2-(2-(3-fluorobenzoyl)-4,7-dimethyl-6-(2-oxo-2-(phenylamino)ethyl)isoindolin-5-yl)acetic acid]",9.63 µM,
"Cc1c2c(c(C)c([C@H](OC(C)(C)C)C(=O)O)c1CC(=O)NCC(C)(C)C)CN(C(=O)c1cccc(F)c1)C2 [Example 7, (S)-2-(tert-butoxy)-2-(2-(3-fluorobenzoyl)-4,7-dimethyl-6-(2-(neopentylamino)-2-oxoethyl)isoindolin-5-yl)acetic acid]",38 µM,
"Cc1ccc(C(=O)Nc2c(C)c3c(c(C)c2[C@H](OC(C)(C)C)C(=O)O)CN(C(=O)c2cccc(F)c2)C3)cc1 [Example 8, (S)-2-(tert-butoxy)-2-(2-(3-fluorobenzoyl)-4,7-dimethyl-6-(4-methylbenzamido)isoindolin-5-yl)acetic acid]",50 µM,
"Cc1c2c(c(C)c([C@H](OC(C)(C)C)C(=O)O)c1NC(=O)CC1CCCCC1)CN(C(=O)c1cccc(F)c1)C2 [Example 9, (S)-2-(tert-butoxy)-2-(6-(2-cyclohexylacetamido)-2-(3-fluorobenzoyl)-4,7-dimethylisoindolin-5-yl)acetic acid]",50 µM,
"Cc1c2c(c(C)c([C@H](OC(C)(C)C)C(=O)O)c1NC(=O)c1ccccc1)CN(C(=O)c1cccc(F)c1)C2 [Example 10, (S)-2-(6-benzamido-2-(3-fluorobenzoyl)-4,7-dimethylisoindolin-5-yl)-2-(tert-butoxy)acetic acid]",4.1 µM,
"Cc1c2c(c(C)c([C@H](OC(C)(C)C)C(=O)O)c1NC(=O)N1CCCCC1)CN(C(=O)c1cccc(F)c1)C2 [Example 11, (S)-2-(tert-butoxy)-2-(2-(3-fluorobenzoyl)-4,7-dimethyl-6-(piperidine-1-carboxamido)isoindolin-5-yl)acetic acid]",3.12 µM,
"Cc1ccc(C(=O)N(C)c2c(C)c3c(c(C)c2[C@H](OC(C)(C)C)C(=O)O)CN(C(=O)c2cccc(F)c2)C3)cc1 [Example 12, (S)-2-(tert-butoxy)-2-(6-(N,4-dimethylbenzamido)-2-(3-fluorobenzoyl)-4,7-dimethylisoindolin-5-yl)acetic acid]",33.9 µM,
"Cc1c2c(c(C)c(N(C)C(=O)CC3CCCCC3)c1[C@H](OC(C)(C)C)C(=O)O)CN(C(=O)c1cccc(F)c1)C2 [Example 13, (S)-2-(tert-butoxy)-2-(6-(2-cyclohexyl-N-methylacetamido)-2-(3-fluorobenzoyl)-4,7-dimethylisoindolin-5-yl)acetic acid]",44.6 µM,
"Cc1c(/C=C/C2CCCCC2)c([C@H](OC(C)(C)C)C(=O)O)c(C)c2c1CN(C(=O)c1cccc(F)c1)C2 [Example 14, (S,E)-2-(tert-butoxy)-2-(6-(2-cyclohexylvinyl)-2-(3-fluorobenzoyl)-4,7-dimethylisoindolin-5-yl)acetic acid]",0.086 µM,
"Cc1c(/C=C/C2CCOCC2)c([C@H](OC(C)(C)C)C(=O)O)c(C)c2c1CN(C(=O)c1cccc(F)c1)C2 [Example 15, (S,E)-2-(tert-butoxy)-2-(2-(3-fluorobenzoyl)-4,7-dimethyl-6-(2-(tetrahydro-2H-pran-4-yl)vinyl)isoindolin-5-yl)acetic acid]",1.31 µM,
"Cc1c(/C=C/CC(C)(C)C)c([C@H](OC(C)(C)C)C(=O)O)c(C)c2c1CN(C(=O)c1cccc(F)c1)C2 [Example 16, (S,E)-2-(tert-butoxy)-2-(6-(4,4-dimethylpent-1-en-1-yl)-2-(3-fluorobenzoyl)-4,7-dimethylisoindolin-5-yl)acetic acid]",0.12 µM,
"Cc1c(/C=C/c2ccccc2)c([C@H](OC(C)(C)C)C(=O)O)c(C)c2c1CN(C(=O)c1cccc(F)c1)C2 [Example 17, (S,E)-2-(tert-butoxy)-2-(2-(3-fluorobenzoyl)-4,7-dimethyl-6-styrylisoindolin-5-yl)acetic acid]",0.124 µM,
"Cc1c2c(c(C)c([C@H](OC(C)(C)C)C(=O)O)c1CCc1ccccc1)CN(C(=O)c1cccc(F)c1)C2 [Example 18, (S)-2-(tert-butoxy)-2-(2-(3-fluorobenzoyl)-4,7-dimethyl-6-phenethylisoindolin-5-yl)acetic acid]",1.09 µM,
"Cc1ccc(/C=C/c2c(C)c3c(c(C)c2[C@H](OC(C)(C)C)C(=O)O)CN(C(=O)c2cccc(F)c2)C3)cc1 [Example 19, (S,E)-2-(tert-butoxy)-2-(2-(3-fluorobenzoyl)-4,7-dimethyl-6-(4-methylstyryl)isoindolin-5-yl)acetic acid]",50 µM,
"Cc1ccc(CCc2c(C)c3c(c(C)c2[C@H](OC(C)(C)C)C(=O)O)CN(C(=O)c2cccc(F)c2)C3)cc1 [Example 20, (S)-2-(tert-butoxy)-2-(2-(3-fluorobenzoyl)-4,7-dimethyl-6-(4-methylphenethyl)isoindolin-5-yl)acetic acid]",50 µM,
"C/C(=C\c1c(C)c2c(c(C)c1[C@H](OC(C)(C)C)C(=O)O)CN(C(=O)c1cccc(F)c1)C2)c1ccccc1 [Example 21, (S,E)-2-(tert-butoxy)-2-(2-(3-fluorobenzoyl)-4,7-dimethyl-6-(2-phenylprop-1-en-1-yl)isoindolin-5-yl)acetic acid]",0.103 µM,
"C/C(=C\c1ccccc1)c1c(C)c2c(c(C)c1[C@H](OC(C)(C)C)C(=O)O)CN(C(=O)c1cccc(F)c1)C2 [Example 22, (S,E)-2-(tert-butoxy)-2-(2-(3-fluorobenzoyl)-4,7-dimethyl-6-(1-phenylprop-1-en-2-yl)isoindolin-5-yl)acetic acid]",0.039 µM,
"C/C(=C(/C)c1c(C)c2c(c(C)c1[C@H](OC(C)(C)C)C(=O)O)CN(C(=O)c1cccc(F)c1)C2)c1ccccc1 [Example 23, (S,E)-2-(tert-butoxy)-2-(2-(3-fluorobenzoyl)-4,7-dimethyl-6-(3-phenylbut-2-en-2-yl)isoindolin-5-yl)acetic acid]",,0.044 µM
"C/C(=C\c1cc(F)c2c(c1C)CCCO2)c1c(C)c2c(c(C)c1[C@H](OC(C)(C)C)C(=O)O)CN(C(=O)c1cccc(F)c1)C2 [Example 24, (S,E)-2-(tert-butoxy)-2-(6-(1-(8-fluoro-5-methylchroman-6-yl)prop-1-en-2-yl)-2-(3-fluorobenzoyl)-4,7-dimethylisoindolin-5-yl)acetic acid]",50 µM,
"Cc1c(/C=C/c2ccc3c(c2)CCCO3)c([C@H](OC(C)(C)C)C(=O)O)c(C)c2c1CN(C(=O)c1cccc(F)c1)C2 [Example 25, (S,E)-2-(tert-butoxy)-2-(6-(2-(chroman-6-yl)vinyl)-2-(3-fluorobenzoyl)-4,7-dimethylisoindolin-5-yl)acetic acid]",33.9 µM,
Cc1c(/C=C/c2cc(F)c3c(c2C)CCCO3)c([C@H](OC(C)(C)C)C(=O)O)c(C)c2c1CN(C(=O)c1cccc(F)c1)C2 [Example 26],50 µM,
"Cc1c(/C=C\c2ccccc2)c([C@H](OC(C)(C)C)C(=O)O)c(C)c2c1CN(C(=O)c1cccc(F)c1)C2 [Example 27, (S,Z)-2-(tert-butoxy)-2-(2-(3-fluorobenzoyl)-4,7-dimethyl-6-styrylisoindolin-5-yl)acetic acid]",0.868 µM,
